The subject of this experiment is A549. Briefly: Cytotoxicity against human A549 cells incubated for 24 hrs by CCK8 assay. The following applies: A549, 24 h. In kind it is functional, cell-based. (In general: Formazan colour is commonly taken as a measure of viable cells.)

This is an account of results in ChEMBL document CHEMBL5120870, “Calysepins I-VII, Hexasaccharide Resin Glycosides from Calystegia sepium and Their Cytotoxic Evaluation” (J Nat Prod, 2022).

By IC50 is commonly meant the concentration that gives 50% inhibition. Read a high IC50 as a need for much substance.

In turn, `CCCCC[C@@H]1CCCCCCCCCC(=O)O[C@H]2[C@H](OC[C@H]3O[C@@H](O[C@H]4[C@H](O)[C@@H](CO)O[C@@H](O[C@H]5[C@H](O1)O[C@H](C)[C@@H](O)[C@@H]5O)[C@@H]4O[C@@H]1O[C@@H](C)[C@H](OC(=O)[C@@H](C)CC)[C@@H](O[C@@H]4O[C@H](CO)[C@@H](OC(=O)[C@@H](C)CC)[C@H](O)[C@H]4O)[C@H]1OC(=O)[C@@H](C)CC)[C@H](O)[C@@H](O)[C@@H]3OC(=O)[C@@H](C)[C@H](C)O)O[C@H](CO)[C@@H](OC(=O)[C@@H](C)CC)[C@@H]2O` gave an IC50 of 5.2 µM.
